Assay results as given in patent US20060234910A1, “Methods for the treatment of insulin resistance and disease states characterized by insulin resistance” (priority 2005, published 2006).

Legend:
[1] = system: MINOR gene expression; assay: Quantitative real-time PCR of MINOR gene expression in 3T3-L1 adipocytes; assay type: cell-based; settings: for insulin-stimulated MINOR gene expression: 1 hour
Experimental: (§1) FIGS. 3A-3C show the effect of insulin stimulation on MINOR and TR3 gene expression in 3T3-L1 adipocytes. FIGS. 3A and 3B show insulin induces the expression of MINOR and TR3 gene expression in 3T3-L1 adipocytes. Fully differentiated 3T3-L1 adipocytes were treated with 100 nM of insulin for up to 8 hours (treated) or 0 nM insulin (0 hour control). The control and treated adipocytes were lysed and the mRNAs were extracted for cDNA synthesis. Quantitative real-time PCR was used to measure expression of MINOR (FIG. 3A) and TR3 (FIG. 3B) genes. Results represent the mean±SE from three separate experiments. […] Fully differentiated 3T3-L1 adipocytes were treated with 100 nM of insulin alone (control) or plus LY294002 (PI 3-kinase inhibitor), SB203580 (p38 MAP kinase inhibitor), Ro318220 (protein kinase C inhibitor) for one hour. The control and treated adipocytes were lysed and the mRNAs were extracted for cDNAs synthesis. A quantitative real-time PCR was performed for detecting the expression levels of MINOR and TR3 genes. Results represent the mean±SE from three separate experiments.
(§2) Fully differentiated 3T3-L1 adipocytes were treated with 10 uM of the indicated thiazolidinedione (troglitazone or pioglizatone) from 0 to 48 hours. Control cells received vehicle alone. The control and treated adipocytes were lysed and the mRNAs were extracted for cDNA synthesis. Quantitative real-time PCR was used to measure expression levels of MINOR (FIGS. 4A and 4B) and TR3 (FIGS. 4C and 4D) genes. Results represent the mean±SE from three separate experiments.
(§3) Fully differentiated 3T3-L1 adipocytes were treated with 100 nM of insulin for various times (0 to 8 hours; the 0 hour time point served as the control and received no added insulin). The control and treated adipocytes were lysed and the mRNAs were extracted for cDNAs synthesis. A quantitative real-time PCR was performed for detecting the expression levels of MINOR and TR3 genes. […] Insulin also stimulated TR3 gene expression adipocytes, but with a different temporal response with TR3 expression levels returning to baseline by hour 2 after treatment (FIG. 3B).
(§4) The stimulatory effect of insulin on MINOR and TR3 gene expression was dependent on signal transduction via the PI-3-kinase pathway, the p38 MAP-K pathway and the protein kinase C (PKC) pathway. […] A quantitative real-time PCR was performed for detecting the expression levels of MINOR and TR3 genes. […]
(§5) Fully differentiated 3T3-L1 adipocytes were treated with 10 uM of the indicated thiazolidinedione (troglitazone or pioglizatone) from 0 to 48 hours. […] Quantitative real-time PCR was used to measure expression levels of MINOR (FIGS. 4A and 4B) and TR3 (FIGS. 4C and 4D) genes. […]

[2] = system: TR3 gene expression; assay: Quantitative real-time PCR of TR3 gene expression in 3T3-L1 adipocytes; assay type: cell-based; settings: for insulin-stimulated TR3 gene expression: 1 hour
Experimental: as §1, §2, §3, §4, §5

[3] = system: Nurr1 gene expression; assay: Nurr1 gene expression in 3T3-L1 adipocytes; assay type: cell-based; settings: fully differentiated 3T3-L1 adipocytes, 100 nM insulin; data not shown
[4] = system: GLUT4 glucose transporters at plasma membrane; assay: Plasma membrane lawn assay of GLUT4 in adipocytes; assay type: cell-based; settings: control (LacZ transfected) adipocytes, 100 nM insulin, 30 min vs basal
Experimental: FIGS. 6A-6D show the effect of MINOR gene expression on insulin-mediated recruitment of GLUT4 glucose transporters to plasma membrane. MINOR gene transduced 3T3-L1 fibroblasts and control LacZ transduced fibroblasts were grown on glass cover slips and differentiated into adipocytes. Adipocytes were then stimulated for 30 min with (insulin-stimulated) or without (basal) 100 nM of insulin. The adipocytes were then washed, and disrupted by sonication leaving and plasma membrane sheets attached to cover slips (plasma membrane lawn assay) (26). Plasma membrane associated GLUT4 was detected using a polyclonal anti-GLUT4 antibody and a FITC-conjugated secondary antibody. (A) basal LacZ expressing adipocytes; (B) insulin-stimulated LacZ expressing adipocytes; (C) basal Minor expressing adipocytes; (D) insulin-stimulated Minor expressing adipocytes.
These experiments use the “plasma membrane lawn” technique (26) to quantify the relative amounts of GLUT4 glucose transporter proteins in the cell surface plasma membrane. MINOR gene transduced 3T3-L1 fibroblasts and control LacZ transduced fibroblasts were grown on glass cover slips and differentiated into adipocytes. […] Plasma membrane associated GLUT4 was detected using a polyclonal anti-GLUT4 antibody and a FITC-conjugated secondary antibody.

[5] = system: TR3 gene expression in skeletal muscle; assay: cDNA microarray of skeletal muscle biopsies, basal vs hyperinsulinemia (TR3); assay type: in vivo, human; settings: insulin stimulation, three hours of hyperinsulinemia vs basal
Source text: (§6) The primary target tissues for insulin action are skeletal muscle, adipose tissue, and the liver tissue. Skeletal muscle is the predominant target tissue for insulin-mediated glucose uptake (responsible for approximately 95% of glucose uptake), and is a critical locus of insulin resistance. Defects in glucose uptake in skeletal muscle is a predominate contributor to the clinical manifestations of insulin resistance. The molecular basis for insulin resistance is not well understood, but appears to involve defects in insulin signal transduction and abnormal cellular trafficking of glucose transporter proteins (5). To better understand the molecular defects responsible for human insulin resistance, skeletal muscle biopsies were obtained from volunteers in three metabolically-defined subgroups: A) insulin sensitive: (B) insulin resistant; and (C) type 2 diabetic. Biopsies from each subgroup were obtained under both basal conditions and after three hours of hyperinsulinemia. Differential gene expression in these muscle biopsies was assessed using cDNA microarray technology utilizing the Affymetrix Hu95A gene expression chips (carried out as per manufacturer's instructions). The effect of insulin on gene expression in human muscle has not been extensively studied, and most prior studies focused on single genes or small numbers of genes with a limited focus (6-8). […]

[6] = system: MINOR gene expression in skeletal muscle; assay: cDNA microarray of skeletal muscle biopsies, basal vs hyperinsulinemia (MINOR); assay type: in vivo, human; settings: insulin stimulation, three hours of hyperinsulinemia vs basal
Source text: as §6

[7] = 3T3-L1 adipocytes, 100 nM insulin plus inhibitor 50 nM
[8] = 3T3-L1 adipocytes, 100 nM insulin
[9] = fully differentiated 3T3-L1 adipocytes, 100 nM insulin, 0 to 8 hours
[10] = 3T3-L1 adipocytes, 100 nM insulin plus inhibitor 10 nM

Cn1cc(C2=C(c3cn(CCCSC(=N)N)c4ccccc34)C(=O)NC2=O)c2ccccc21 [Ro318220, reference compound]
insulin-stimulated MINOR gene expression [1, 7]: decreased the ability of insulin to stimulate | insulin-stimulated TR3 gene expression [2, 7]: decreased the ability of insulin to stimulate

insulin
Nurr1 gene expression [3]: not stimulated | period over which the increase in MINOR gene expression is sustained [1, 8]: 4 h | MINOR gene expression [1, 9]: stimulated | plasma membrane associated GLUT4 [4]: increased GLUT4 staining in the plasma membrane | TR3 gene expression in human skeletal muscles (microarray) [5]: strongly induced | time at which TR3 expression levels return to baseline after treatment [2, 8]: ≤ 2 h | TR3 gene expression [2, 9]: stimulated | MINOR gene expression in human skeletal muscles (microarray) [6]: strongly induced

C[S+]([O-])c1ccc(-c2nc(-c3ccncc3)c(-c3ccc(F)cc3)[nH]2)cc1 (stereo not drawn) [SB203580, reference compound]
insulin-stimulated MINOR gene expression [1, 10]: decreased the ability of insulin to stimulate | insulin-stimulated TR3 gene expression [2, 10]: decreased the ability of insulin to stimulate
